Reference: patent US9145351B2, “Azole derivatives, methods for producing the same, intermediate thereof, agro-horticultural agents” (KUREHA CORPORATION, priority 2009, dated 2015)
Read-outs that look alike come from different tables or passages of the source.

Legend:
Assay type in all cases: cell-based
Sclerotinia sclerotiorum = assay: Plate medium fungicidal assay, Sclerotinia rot S.s (Experimental Example 5); conditions: for inhibition at 5 µg/mL / inhibition at 50 µg/mL: Sclerotinia sclerotiorum
Protocol: (§1) In this Experimental Example, the fungicidal effects of the inventive compounds on various phytopathogenic fungi for plants and hazardous microorganism for industrial materials were examined by the methods described below. Each inventive compound was dissolved in 2 ml of dimethyl sulfoxide. 0.6 ml of this solution was added to 60 nil of a PDA medium (potato dextrose agar medium) at about 60 degrees C., which was mixed thoroughly in a 100-ml conical flask, and poured into a dish, where it was solidified, thereby obtaining a plate medium containing the inventive compound at 50 mg/L and 5 mg/L. On the other hand, a subject microorganism previously cultured on a plate medium was cut out using a cork borer whose diameter was 4 mm, and inoculated to the test compound-containing plate medium described above. […] The growth degree of the microorganism on the test compound-containing plate medium thus observed was compared with the growth degree of the microorganism in the untreated group, and % mycelial growth inhibition was calculated by the following equation. R=100(dc−dt)/dc wherein R=% mycelial extension inhibition, dc=flora diameter in untreated plate, dt=flora diameter in treated plate. The results obtained as described above were evaluated as one of the 5 grades according to the following criteria. […] Sclerotinia rot (Sclerotinia sclerotiorum) S.s

[1] = tested on: Pseudocercoporella herpotrichoides; assay: Plate medium fungicidal assay, wheat eye spot P.h (Experimental Example 5)
Protocol: as §1, with “Wheat eye spot (Pseudocercoporella herpotrichoides) P.h” for “Sclerotinia rot (Sclerotinia sclerotiorum) S.s”

Phaeosphaeria nodorum = assay: Plate medium fungicidal assay, wheat Septoria nodorum blotch P.n (Experimental Example 5); conditions: for inhibition at 5 µg/mL / inhibition at 50 µg/mL: Parastagonospora nodorum
Protocol: as §1, with “Wheat Septoria nodorum blotch (Phaeosphaeria nodorum) P.n” for “Sclerotinia rot (Sclerotinia sclerotiorum) S.s”

Rhynchosporium secalis = assay: Plate medium fungicidal assay, barley leaf blotch R.sec (Experimental Example 5); conditions: for inhibition at 5 µg/mL / inhibition at 50 µg/mL: Rhynchosporium secalis
Protocol: as §1, with “Barley leaf blotch (Rhynchosporium secalis) R.sec” for “Sclerotinia rot (Sclerotinia sclerotiorum) S.s”

Giberella fujikuroi = assay: Plate medium fungicidal assay, rice bakanae disease G.f (Experimental Example 5)
Protocol: as §1, with “Rice bakanae disease (Giberella fujikuroi) G.f” for “Sclerotinia rot (Sclerotinia sclerotiorum) S.s”

Pyricularia oryzae = assay: microbe, parasite or virus in culture; conditions: for inhibition at 5 µg/mL / inhibition at 50 µg/mL: Pyricularia oryzae
[2] = plate medium containing compound at 5 mg/L
[3] = plate medium containing compound at 50 mg/L
[4] = plate medium, 5 mg/L, read-out: growth inhibition grade S.s
[5] = plate medium, 50 mg/L, read-out: growth inhibition grade S.s
[6] = plate medium, 5 mg/L, read-out: growth inhibition grade P.h
[7] = plate medium, 50 mg/L, read-out: growth inhibition grade P.h
[8] = plate medium, 5 mg/L, read-out: growth inhibition grade P.n
[9] = plate medium, 50 mg/L, read-out: growth inhibition grade P.n
[10] = plate medium, 5 mg/L, read-out: growth inhibition grade R.sec
[11] = plate medium, 50 mg/L, read-out: growth inhibition grade R.sec
[12] = plate medium, 5 mg/L, read-out: growth inhibition grade G.f
[13] = plate medium, 50 mg/L, read-out: growth inhibition grade G.f
[14] = read-out: Growth inhibition grade, P.o
[15] = read-out: growth inhibition grade P.o

Row | Compound | Growth inhibition grade, S.s (Sclerotinia sclerotiorum; [2]) | Growth inhibition grade, S.s (Sclerotinia sclerotiorum; [3]) | Growth inhibition grade, P.h [1, 2] | Growth inhibition grade, P.h [1, 3] | Growth inhibition grade, P.n (Phaeosphaeria nodorum; [2]) | Growth inhibition grade, P.n (Phaeosphaeria nodorum; [3]) | Growth inhibition grade, R.sec (Rhynchosporium secalis; [2]) | Growth inhibition grade, R.sec (Rhynchosporium secalis; [3]) | Growth inhibition grade, G.f (Giberella fujikuroi; [2]) | Growth inhibition grade, G.f (Giberella fujikuroi; [3]) | Growth inhibition grade, P.o (Pyricularia oryzae; [2]) | Growth inhibition grade, P.o (Pyricularia oryzae; [3]) | inhibition at 5 µg/mL (Sclerotinia sclerotiorum; [4]) [%] | inhibition at 50 µg/mL (Sclerotinia sclerotiorum; [5]) [%] | inhibition at 5 µg/mL [1, 6] [%] | inhibition at 50 µg/mL [1, 7] [%] | inhibition at 5 µg/mL (Phaeosphaeria nodorum; [8]) [%] | inhibition at 50 µg/mL (Phaeosphaeria nodorum; [9]) [%] | inhibition at 5 µg/mL (Rhynchosporium secalis; [10]) [%] | inhibition at 50 µg/mL (Rhynchosporium secalis; [11]) [%] | also measured
1 | C[C@]1(CCl)CC[C@@H](Cc2ccc(OC(F)(F)F)cc2)[C@]1(O)Cn1cncn1 (relative stereo) [Compound I-79] | 5 (% Mycerial growth inhibition of 80% or higher) | 5 (% Mycerial growth inhibition of 80% or higher) | 5 (% Mycerial growth inhibition of 80% or higher) | 5 (% Mycerial growth inhibition of 80% or higher) | 5 (% Mycerial growth inhibition of 80% or higher) | 5 (% Mycerial growth inhibition of 80% or higher) | 5 (% Mycerial growth inhibition of 80% or higher) | 5 (% Mycerial growth inhibition of 80% or higher) | 5 (% Mycerial growth inhibition of 80% or higher) | 5 (% Mycerial growth inhibition of 80% or higher) | 5 (% Mycerial growth inhibition of 80% or higher) | 5 (% Mycerial growth inhibition of 80% or higher) | – | – | – | – | – | – | – | – | –
2 | C[C@]1(CCl)CC[C@@H](Cc2ccc(F)cc2F)[C@]1(O)Cn1cncn1 (relative stereo) [Compound I-88] | 5 (% Mycerial growth inhibition of 80% or higher) | 5 (% Mycerial growth inhibition of 80% or higher) | 5 (% Mycerial growth inhibition of 80% or higher) | 5 (% Mycerial growth inhibition of 80% or higher) | 5 (% Mycerial growth inhibition of 80% or higher) | 5 (% Mycerial growth inhibition of 80% or higher) | 5 (% Mycerial growth inhibition of 80% or higher) | 5 (% Mycerial growth inhibition of 80% or higher) | 5 (% Mycerial growth inhibition of 80% or higher) | 5 (% Mycerial growth inhibition of 80% or higher) | 5 (% Mycerial growth inhibition of 80% or higher) | 5 (% Mycerial growth inhibition of 80% or higher) | – | – | – | – | – | – | – | – | –
3 | CC1(C)CCC(Cc2ccc(Cl)cc2)C1(O)Cn1ncnc1S (racemic) [compound (2)] | – | – | – | – | – | – | – | – | – | – | – | – | – | – | – | – | – | – | – | – | Growth inhibition grade, S.s (Sclerotinia sclerotiorum; plate medium, 5 mg/L): 3 (% Mycelial growth inhibition of less than 60 to 40% or higher); Growth inhibition grade, S.s (Sclerotinia sclerotiorum; plate medium, 50 mg/L): 5 (% Mycerial growth inhibition of 80% or higher); Growth inhibition grade, P.h ([1]; plate medium, 5 mg/L): 2 (% Mycerial growth inhibition of less than 40 to 20% or higher); Growth inhibition grade, P.h ([1]; plate medium, 50 mg/L): 4 (% Mycerial growth inhibition of less than 80 to 60% or higher); Growth inhibition grade, P.n (Phaeosphaeria nodorum; plate medium, 5 mg/L): 3 (% Mycelial growth inhibition of less than 60 to 40% or higher); Growth inhibition grade, P.n (Phaeosphaeria nodorum; plate medium, 50 mg/L): 4 (% Mycerial growth inhibition of less than 80 to 60% or higher); Growth inhibition grade, R.sec (Rhynchosporium secalis; plate medium, 5 mg/L): 5 (% Mycerial growth inhibition of 80% or higher); Growth inhibition grade, R.sec (Rhynchosporium secalis; plate medium, 50 mg/L): 5 (% Mycerial growth inhibition of 80% or higher); Growth inhibition grade, G.f (Giberella fujikuroi; plate medium, 5 mg/L): 3 (% Mycelial growth inhibition of less than 60 to 40% or higher); Growth inhibition grade, G.f (Giberella fujikuroi; plate medium, 50 mg/L): 4 (% Mycerial growth inhibition of less than 80 to 60% or higher); Growth inhibition grade, P.o (Pyricularia oryzae; plate medium, 5 mg/L): 4 (% Mycerial growth inhibition of less than 80 to 60% or higher); Growth inhibition grade, P.o (Pyricularia oryzae; plate medium, 50 mg/L): 4 (% Mycerial growth inhibition of less than 80 to 60% or higher)
4 | C[C@]1(CCl)CC[C@@H](Cc2ccc(F)cc2)[C@]1(O)Cn1cncn1 (racemic) [Compound I-77, (1RS,2SR,5SR)-2-chloromethyl-5-(4-fluorobenzyl)-2-methyl-1-(1H-1,2,4-triazol-1-ylmethyl)cyclopentanol] | – | – | – | – | – | – | – | – | – | – | – | – | > 80 | > 80 | > 80 | > 80 | > 80 | > 80 | > 80 | > 80 | inhibition at 5 µg/mL (Sclerotinia sclerotiorum; plate medium containing compound at 5 mg/L, read-out: Growth inhibition grade, S.s): > 80%; inhibition at 50 µg/mL (Sclerotinia sclerotiorum; plate medium containing compound at 50 mg/L, read-out: Growth inhibition grade, S.s): > 80%; inhibition at 5 µg/mL ([1]; plate medium containing compound at 5 mg/L, read-out: Growth inhibition grade, P.h): > 80%; inhibition at 50 µg/mL ([1]; plate medium containing compound at 50 mg/L, read-out: Growth inhibition grade, P.h): > 80%; inhibition at 5 µg/mL (Phaeosphaeria nodorum; plate medium containing compound at 5 mg/L, read-out: Growth inhibition grade, P.n): > 80%; inhibition at 50 µg/mL (Phaeosphaeria nodorum; plate medium containing compound at 50 mg/L, read-out: Growth inhibition grade, P.n): > 80%; inhibition at 5 µg/mL (Rhynchosporium secalis; plate medium containing compound at 5 mg/L, read-out: Growth inhibition grade, R.sec): > 80%; inhibition at 50 µg/mL (Rhynchosporium secalis; plate medium containing compound at 50 mg/L, read-out: Growth inhibition grade, R.sec): > 80%; inhibition at 5 µg/mL (Giberella fujikuroi; plate medium containing compound at 5 mg/L, read-out: Growth inhibition grade, G.f): > 80%; inhibition at 50 µg/mL (Giberella fujikuroi; plate medium containing compound at 50 mg/L, read-out: Growth inhibition grade, G.f): > 80%; inhibition at 5 µg/mL (Giberella fujikuroi; [12]): > 80%; inhibition at 50 µg/mL (Giberella fujikuroi; [13]): > 80%; inhibition at 5 µg/mL (Pyricularia oryzae; [14]): > 80%; inhibition at 50 µg/mL (Pyricularia oryzae; [14]): > 80%; inhibition at 5 µg/mL (Pyricularia oryzae; [15]): > 80%; inhibition at 50 µg/mL (Pyricularia oryzae; [15]): > 80%
5 | C[C@]1(CBr)CC[C@@H](Cc2ccccc2)[C@]1(O)Cn1cncn1 (racemic) [Compound I-602, (1RS,2SR,5SR)-2-bromomethyl-5-benzyl-2-methyl-1-(1H-1,2,4-triazol-1-ylmethyl)cyclopentanol] | – | – | – | – | – | – | – | – | – | – | – | – | > 80 | > 80 | 40 to 60 | > 80 | 40 to 60 | > 80 | > 80 | > 80 | inhibition at 5 µg/mL (Giberella fujikuroi; [12]): > 80%; inhibition at 50 µg/mL (Giberella fujikuroi; [13]): > 80%; inhibition at 5 µg/mL (Pyricularia oryzae; [15]): > 80%; inhibition at 50 µg/mL (Pyricularia oryzae; [15]): > 80%
